Measurements: US8202881B2, “JAK2 inhibitors and their use for the treatment of myeloproliferative diseases and cancer” (Bristol-Meyers Squibb Company, priority 2009, dated 2012)

Columns and labels:
JAK2 = JAK2 (Homo sapiens, UniProt O60674); test: JAK2 Tyrosine Kinase Assay; type: biochemical; settings: for IC50: ATP 30 μM, JAK2 1 nM, 60 min room temperature
Experimental: JAK2 Tyrosine Kinase Assay
The assays were performed in V-bottom 384-well plates. The final assay volume was 30 μL prepared from 15 μL additions of enzyme and substrates (fluoresceinated peptide and ATP) and test compounds in assay buffer (100 mM HEPES pH 7.4, 10 mM MgCl2, 25 mM Beta-Glycerolphosphate, 0.015% Brij35 and 4 mM DTT). The reaction was initiated by the combination of JAK2 with substrates and test compounds. The reaction was incubated at room temperature for 60 min. and terminated by adding 45 μL of 35 mM EDTA to each sample. The reaction mixture was analyzed on the Caliper LabChip 3000 by electrophoretic separation of the fluorescent substrate and phosphorylated product. Inhibition data were calculated by comparison to no enzyme control reactions for 100% inhibition and vehicle-only reactions for 0% inhibition. The final concentration of reagents in the assays is ATP, 30 μM; JAK2 fluorescent peptide, 1.5 μM; JAK2, 1 nM; and DMSO, 1.6%. Dose response curves were generated to determine the concentration required inhibiting 50% of kinase activity (IC50). Compounds were dissolved at 10 mM in dimethylsulfoxide (DMSO) and evaluated at eleven concentrations, each in duplicate. IC50 values were derived by non-linear regression analysis

SET-2 cells = test: Cell Proliferation Inhibition Assay (3H-thymidine incorporation); type: cell-based; settings: Homo sapiens, 72 h with compound
Experimental: Cell Proliferation Inhibition Assay
Compounds were evaluated for their ability to inhibit cell proliferation, using an assay that measures thymidine incorporation in the DNA of the dividing cell, which is directly correlated with cell numbers. SET-2 cells were plated at 10000 cells/well in 96-well plates and were cultured for 24 h in RPMI-1640 supplemented with 20% fetal bovine serum, before test compounds were added. Compounds were diluted in culture medium such that the final concentration of dimethyl sulfoxide never exceeded 0.1%. Following the addition of compounds, the cells were cultured for an additional 72 h before cell proliferation was determined by measuring DNA synthesis with 3H-thymidine incorporation.

Chain of JAK2 (O60674 whole entry): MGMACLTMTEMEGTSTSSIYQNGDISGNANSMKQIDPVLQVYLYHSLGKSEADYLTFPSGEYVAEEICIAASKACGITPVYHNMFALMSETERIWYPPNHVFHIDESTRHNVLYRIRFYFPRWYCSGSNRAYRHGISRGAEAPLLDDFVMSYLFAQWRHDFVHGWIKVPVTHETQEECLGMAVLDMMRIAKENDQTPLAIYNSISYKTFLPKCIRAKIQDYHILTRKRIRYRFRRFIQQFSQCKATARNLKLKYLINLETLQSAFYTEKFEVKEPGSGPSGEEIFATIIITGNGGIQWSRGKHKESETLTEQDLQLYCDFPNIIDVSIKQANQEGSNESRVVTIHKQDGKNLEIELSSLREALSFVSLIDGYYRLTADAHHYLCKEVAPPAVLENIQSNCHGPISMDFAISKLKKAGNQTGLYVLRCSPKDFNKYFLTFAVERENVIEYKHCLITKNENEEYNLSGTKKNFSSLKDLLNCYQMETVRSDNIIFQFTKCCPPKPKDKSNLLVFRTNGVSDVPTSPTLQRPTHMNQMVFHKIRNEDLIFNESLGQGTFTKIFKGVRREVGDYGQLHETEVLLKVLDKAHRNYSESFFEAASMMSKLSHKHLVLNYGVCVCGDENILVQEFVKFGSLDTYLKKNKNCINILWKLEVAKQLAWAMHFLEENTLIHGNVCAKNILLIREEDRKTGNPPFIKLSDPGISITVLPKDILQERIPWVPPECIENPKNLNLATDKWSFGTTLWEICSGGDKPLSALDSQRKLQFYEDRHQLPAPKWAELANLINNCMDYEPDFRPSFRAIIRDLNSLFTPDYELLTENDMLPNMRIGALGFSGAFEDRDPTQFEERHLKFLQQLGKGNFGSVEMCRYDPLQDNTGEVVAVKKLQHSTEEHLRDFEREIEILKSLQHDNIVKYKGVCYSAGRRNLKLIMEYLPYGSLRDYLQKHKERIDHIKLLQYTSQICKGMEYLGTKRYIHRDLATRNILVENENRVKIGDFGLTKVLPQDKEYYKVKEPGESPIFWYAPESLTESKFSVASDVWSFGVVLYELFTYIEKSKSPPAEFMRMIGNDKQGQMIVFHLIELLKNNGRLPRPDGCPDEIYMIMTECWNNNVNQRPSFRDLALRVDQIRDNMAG

CCn1c(C(=O)N(C2CC2)C2CC2)cc2c3c(ncn3C)c(Nc3nc(CF)cs3)nc21 [Example 3, N,N-dicyclopropyl-6-ethyl-4-(4-(fluoromethyl)thiazol-2-ylamino)-1-methyl-1,6-dihydroimidazo[4,5-d]pyrrolo[2,3-b]pyridine-7-carboxamide]
IC50 (JAK2): 1.5 nM | IC50 (SET-2 cells): 10 nM

CCn1c(C(=O)N(C2CC2)C2CC2)cc2c3c(ncn3C)c(Nc3nc(C(C)(C)C)cs3)nc21 [Example 4, 4-(4-tert-butylthiazol-2-ylamino)-N,N-dicyclopropyl-6-ethyl-1-methyl-1,6-dihydroimidazo[4,5-d]pyrrolo[2,3-b]pyridine-7-carboxamide]
IC50 (JAK2): 30 nM | IC50 (SET-2 cells): 2530 nM

CCn1c(C(=O)N(C2CC2)C2CC2)cc2c3c(ncn3C)c(Nc3nc(C(=O)NC4CCS(=O)(=O)C4)cs3)nc21 (stereo not shown) [Example 15, N,N-dicyclopropyl-4-((4-((1,1-dioxidotetrahydro-3-thiophenyl)carbamoyl)-1,3-thiazol-2-yl)amino)-6-ethyl-1-methyl-1,6-dihydroimidazo[4,5-d]pyrrolo[2,3-b]pyridine-7-carboxamide]
IC50 (JAK2): 1.52 nM | IC50 (SET-2 cells): 490 nM

CCn1c(C(=O)N(C2CC2)C2CC2)cc2c3c(ncn3C)c(Nc3nc(C(F)(F)F)c(C)s3)nc21 [Example 29, N,N-dicyclopropyl-6-ethyl-1-methyl-4-(5-methyl-4-(trifluoromethyl)thiazol-2-ylamino)-1,6-dihydroimidazo[4,5-d]pyrrolo[2,3-b]pyridine-7-carboxamide]
IC50 (JAK2): 10 nM | IC50 (SET-2 cells): 10000 nM

CCn1c(C(=O)N(C2CC2)C2CC2)cc2c3c(ncn3C)c(Nc3nc4c(s3)CS(=O)(=O)CC4)nc21 [Example 33, 4-(5,5-dioxo-4,5,6,7-tetrahydro-5λ^6-thiopyrano[4,3-d]thiazol-2-ylamino)-6-ethyl-1-methyl-1,6-dihydro-1,3,5,6-tetraaza-as-indacene-7-carboxylic acid dicyclopropylamide]
IC50 (JAK2): 0.637 nM | IC50 (SET-2 cells): 10 nM

CCn1c(C(=O)N(C2CC2)C2CC2)cc2c3c(ncn3C)c(Nc3nc(C)c(C(C)=O)s3)nc21 [Example 34, 4-(5-acetyl-4-methylthiazol-2-ylamino)-N,N-dicyclopropyl-6-ethyl-1-methyl-1,6-dihydroimidazo[4,5-d]pyrrolo[2,3-b]pyridine-7-carboxamide]
IC50 (JAK2): 1.5 nM | IC50 (SET-2 cells): 240 nM

CCn1c(C(=O)N(C2CC2)C2CC2)cc2c3c(ncn3C)c(Nc3nc4cc[nH]c(=O)c4s3)nc21 [Example 35, N,N-dicyclopropyl-6-ethyl-1-methyl-4-(4-oxo-4,5-dihydrothiazolo[5,4-c]pyridin-2-ylamino)-1,6-dihydroimidazo[4,5-d]pyrrolo[2,3-b]pyridine-7-carboxamide]
IC50 (JAK2): 0.536 nM | IC50 (SET-2 cells): 2850 nM

CCn1c(C(=O)N(C2CC2)C2CC2)cc2c3c(ncn3C)c(Nc3ncc(C#N)s3)nc21 [Example 38, 4-(5-cyanothiazol-2-ylamino)-N,N-dicyclopropyl-6-ethyl-1-methyl-1,6-dihydroimidazo[4,5-d]pyrrolo[2,3-b]pyridine-7-carboxamide]
IC50 (JAK2): 40 nM | IC50 (SET-2 cells): 60 nM

CCNC(=O)c1nc(Nc2nc3c(cc(C(=O)N(C4CC4)C4CC4)n3CC)c3c2ncn3C)sc1C [Example 49, 2-(7-(dicyclopropylcarbamoyl)-6-ethyl-1-methyl-1,6-dihydroimidazo[4,5-d]pyrrolo[2,3-b]pyridine-4-ylamino)-N-ethyl-5-methylthiazole-4-carboxamide]
IC50 (JAK2): 50 nM | IC50 (SET-2 cells): 3930 nM

CCn1c(C(=O)N(C2CC2)C2CC2)cc2c3c(ncn3C)c(Nc3nc(C)c(C(=O)NCCOC)s3)nc21 [Example 53, 2-(7-(dicyclopropylcarbamoyl)-6-ethyl-1-methyl-1,6-dihydroimidazo[4,5-d]pyrrolo[2,3-b]pyridin-4-ylamino)-N-(2-methoxyethyl)-4-methylthiazole-5-carboxamide]
IC50 (JAK2): 1.47 nM | IC50 (SET-2 cells): 100 nM

CCn1c(C(=O)N(C2CC2)C2CC2)cc2c3c(ncn3C)c(Nc3nc(C)c(C(=O)N4CCC4)s3)nc21 [Example 55, 4-(5-(azetidine-1-carbonyl)-4-methylthiazol-2-ylamino)-N,N-dicyclopropyl-6-ethyl-1-methyl-1,6-dihydroimidazo[4,5-d]pyrrolo[2,3-b]pyridine-7-carboxamide]
IC50 (JAK2): 0.748 nM | IC50 (SET-2 cells): 4.3 nM

CCn1c(C(=O)N(C2CC2)C2CC2)cc2c3c(ncn3C)c(Nc3nc(C)c(C(=O)NCC#N)s3)nc21 [Example 61, 4-((5-((cyanomethyl)carbamoyl)-4-methyl-1,3-thiazol-2-yl)amino)-N,N-dicyclopropyl-6-ethyl-1-methyl-1,6-dihydroimidazo[4,5-d]pyrrolo[2,3-b]pyridine-7-carboxamide]
IC50 (JAK2): 0.751 nM

CCn1c(C(=O)N(C2CC2)C2CC2)cc2c3c(ncn3C)c(Nc3nc(C)c(C(=O)N4CCS(=O)(=O)CC4)s3)nc21 [Example 70]
IC50 (JAK2): 0.733 nM | IC50 (SET-2 cells): 330 nM

CCn1c(C(=O)N(C2CC2)C2CC2)cc2c3c(ncn3C)c(Nc3cc(C)n(C)n3)nc21 [Example 73, N,N-dicyclopropyl-4-(1,5-dimethyl-1H-pyrazol-3-ylamino)-6-ethyl-1-methyl-1,6-dihydroimidazo[4,5-d]pyrrolo[2,3-b]pyridine-7-carboxamide]
IC50 (JAK2): 1 nM | IC50 (SET-2 cells): 60 nM

CCn1c(C(=O)N(C2CC2)C2CC2)cc2c3c(ncn3C)c(Nc3cc(C)n(C4CCC4)n3)nc21 [Example 81, 4-(1-cyclobutyl-5-methyl-1H-pyrazol-3-ylamino)-N,N-dicyclopropyl-6-ethyl-1-methyl-1,6-dihydroimidazo[4,5-d]pyrrolo[2,3-b]pyridine-7-carboxamide]
IC50 (JAK2): 15.2 nM | IC50 (SET-2 cells): 339 nM

CCn1c(C(=O)N(C2CC2)C2CC2)cc2c3c(ncn3C)c(Nc3cnn(C)c3)nc21 [Example 98, N,N-dicyclopropyl-6-ethyl-1-methyl-4-(1-methyl-1H-pyrazol-4-ylamino)-1,6-dihydroimidazo[4,5-d]pyrrolo[2,3-b]pyridine-7-carboxamide]
IC50 (JAK2): 0.695 nM | IC50 (SET-2 cells): 7.37 nM

CCn1nc(Nc2nc3c(cc(C(=O)N(C4CC4)C4CC4)n3CC)c3c2ncn3C)cc1C(=O)O [Example 101, 3-(7-(dicyclopropylcarbamoyl)-6-ethyl-1-methyl-1,6-dihydroimidazo[4,5-d]pyrrolo[2,3-b]pyridin-4-ylamino)-1-ethyl-1H-pyrazole-5-carboxylic acid]
IC50 (JAK2): 0.743 nM | IC50 (SET-2 cells): 10000 nM

CCn1nc(Nc2nc3c(cc(C(=O)N(C4CC4)C4CC4)n3CC)c3c2ncn3C)cc1C(=O)NCCNC(C)=O [Example 109, 4-((5-((2-acetamidoethyl)carbamoyl)-1-ethyl-1H-pyrazol-3-yl)amino)-N,N-dicyclopropyl-6-ethyl-1-methyl-1,6-dihydroimidazo[4,5-d]pyrrolo[2,3-b]pyridine-7-carboxamide]
IC50 (JAK2): 1.52 nM | IC50 (SET-2 cells): 4150 nM

CCn1c(C(=O)N(C2CC2)C2CC2)cc2c3c(ncn3C)c(Nc3cc(CN4CCOCC4)n(C)n3)nc21 [Example 116, N,N-dicyclopropyl-6-ethyl-1-methyl-4-(1-methyl-5-(morpholinomethyl)-1H-pyrazol-3-ylamino)-1,6-dihydroimidazo[4,5-d]pyrrolo[2,3-b]pyridine-7-carboxamide]
IC50 (JAK2): 1.49 nM | IC50 (SET-2 cells): 170 nM

CCn1c(C(=O)N(C2CC2)C2CC2)cc2c3c(ncn3C)c(Nc3nc(C)n(C)n3)nc21 [Example 125, N,N-dicyclopropyl-4-(1,5-dimethyl-1H-1,2,4-triazol-3-ylamino)-6-ethyl-1-methyl-1,6-dihydroimidazo[4,5-d]pyrrolo[2,3-b]pyridine-7-carboxamide]
IC50 (JAK2): 50 nM | IC50 (SET-2 cells): 1270 nM

CCNC(=O)c1cc2c(nc(NC)c3ncn(C)c32)[nH]1 [Example No. A171, reference compound]
activity against JAK2 (JAK2; result in words): weak activity
